Data reported in ChEMBL document CHEMBL3351405, “Novel tricyclic pyrazolopyrimidines as potent and selective GPR119 agonists” (Bioorg Med Chem Lett, 2014).
In brackets after ≈: the same amount, converted by molar mass.

Legend:
[1] = molecular target: T1, Glucose-dependent insulinotropic receptor (Homo sapiens) (UniProt Q8TDV5); assay: Agonist activity at human GPR119 overexpressed in CHO cells assessed as increase in cellular cAMP production by HTRF method relative to AR231453; type: functional, cell-based
T1 sequence (whole entry): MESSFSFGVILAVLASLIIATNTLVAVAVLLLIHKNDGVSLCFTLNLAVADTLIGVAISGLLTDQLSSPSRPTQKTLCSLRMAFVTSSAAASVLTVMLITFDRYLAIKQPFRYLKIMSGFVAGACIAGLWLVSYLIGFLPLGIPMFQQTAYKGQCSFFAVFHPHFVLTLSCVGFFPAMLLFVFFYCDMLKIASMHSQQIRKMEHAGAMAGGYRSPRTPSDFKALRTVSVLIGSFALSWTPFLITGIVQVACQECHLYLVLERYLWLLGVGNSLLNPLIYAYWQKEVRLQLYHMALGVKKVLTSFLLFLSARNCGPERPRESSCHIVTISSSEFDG

[2] = molecular target: T2, Glucose-dependent insulinotropic receptor (Homo sapiens, UniProt Q8TDV5); assay: Agonist activity at human GPR119 overexpressed in CHO cells assessed as increase in cellular cAMP production by HTRF method; type: functional, cell-based
T2 sequence (Q8TDV5 whole entry): T1 sequence (whole entry)

[3] = Clearance in human liver microsomes assessed as extraction ratio; type: ADME; conditions: read-out: ERH
[4] = Solubility of the compound at pH 6.8; type: physicochemical; conditions: buffer
[5] = molecular target: T3, Glucose-dependent insulinotropic receptor (Mus musculus, UniProt Q7TQP3); assay: Agonist activity at mouse GPR119 overexpressed in CHO cells assessed as increase in cellular cAMP production by HTRF method; type: functional, cell-based
T3 sequence (Q7TQP3 whole entry): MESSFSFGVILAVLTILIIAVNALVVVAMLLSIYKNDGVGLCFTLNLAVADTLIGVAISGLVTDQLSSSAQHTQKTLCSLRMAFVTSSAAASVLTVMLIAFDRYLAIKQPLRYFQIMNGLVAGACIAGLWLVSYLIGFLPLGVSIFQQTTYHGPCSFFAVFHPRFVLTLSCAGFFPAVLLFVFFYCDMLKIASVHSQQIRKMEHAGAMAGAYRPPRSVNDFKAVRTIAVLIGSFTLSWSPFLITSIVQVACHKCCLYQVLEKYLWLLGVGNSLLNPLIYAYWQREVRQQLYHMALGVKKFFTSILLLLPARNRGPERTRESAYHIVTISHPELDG

[6] = molecular target: T4, Glucose-dependent insulinotropic receptor (Mus musculus) (UniProt Q7TQP3); assay: Agonist activity at mouse GPR119 overexpressed in CHO cells assessed as increase in cellular cAMP production by HTRF method relative to AR231453; type: functional, cell-based
T4 sequence (whole entry): T3 sequence (Q7TQP3 whole entry)

[7] = Clearance in rat liver microsomes assessed as extraction ratio; type: ADME; conditions: read-out: ERH
Mus musculus [8] = assay: Dose normalized AUC in po dosed Balb/C mouse; type: ADME, organism-based; conditions: in vivo
[9] = Clearance in mouse liver microsomes assessed as extraction ratio; type: ADME; conditions: read-out: ERH
Rattus norvegicus [10] = assay: Antidiabetic activity in ZDF fa/fa rat model assessed as reduction in glucose AUC at 30 mg/kg, po qd administered 1 hr prior to glucose bolus after 2 weeks by OGTT relative to vehicle-treated control; type: functional, Zucker; parameters: scale not given: the % may be the effect or the level left
Rattus norvegicus [11] = assay: Antidiabetic activity in ZDF fa/fa rat model assessed as reduction in glucose AUC at 10 mg/kg, po qd administered 1 hr prior to glucose bolus after 2 weeks by OGTT relative to vehicle-treated control; type: functional, Zucker; parameters: scale not given: the % may be the effect or the level left
Rattus norvegicus [12] = assay: Antidiabetic activity in ZDF fa/fa rat model assessed as reduction in glucose AUC at 3 mg/kg, po qd administered 1 hr prior to glucose bolus after 2 weeks by OGTT relative to vehicle-treated control; type: functional, Zucker; parameters: scale not given: the % may be the effect or the level left
Mus musculus [13] = assay: Increase in plasma GLP1 level in 16 hrs fasted wild-type C57BL/6J mouse at 10 mg/kg, po administered as single dose 30 mins prior to glucose excursion measured after 2 mins by ELISA relative to vehicle-treated control; type: functional

Row | Efficacy [1] [%] | EC50 [2] [nM] | hepatic extraction ratio [3] | EC50 [5] [nM] | Efficacy [6] [%] | Structure (SMILES) | also measured
1 | 58 | 530 | 0.51 | – | – | COC(=O)[C@@]1(Cc2cccc(F)c2)NCc2cnc3c(-c4ccc(C(F)(F)F)cc4)c(C(C)(C)O)nn3c21 | –
2 | 101 | 15 | 0.82 | – | – | COC(=O)[C@@]1(Cc2cccc(F)c2)NCc2cnc3c(-c4ccc(C(F)(F)F)nc4)c(CO)nn3c21 | Efficacy ([1]; tested as the 2H-labelled form): 87%; solubility [4]: 99 µM (≈ 49.6 µg/mL)
3 | 90 | 2 | 0.9 | – | – | COCCN(C)C(=O)[C@@]1(Cc2cccc(F)c2)NCc2cnc3c(-c4ccc(C(F)(F)F)cc4)cnn3c21 | AUC/dose (Mus musculus [8]): 0.07 µM·h; solubility [4]: < 5 µM
4 | – | 35 | 0.85 | – | – | [2H]C([2H])(O)c1nn2c3c(cnc2c1-c1ccc(C(F)(F)F)nc1)CN[C@]3(Cc1cccc(F)c1)C(=O)OC | AUC/dose (Mus musculus [8]): 6.56 µM·h; solubility [4]: 83 µM (≈ 41.8 µg/mL)
5 | 88 | 2 | 0.9 | – | – | OCc1nn2c3c(cnc2c1-c1ccc(C(F)(F)F)cc1)CN[C@]3(Cc1cccc(F)c1)C1CC1 | solubility [4]: 6 µM (≈ 2.89 µg/mL)
6 | 92 | 3 | 0.96 | 9 | 81 | COC(=O)[C@@]1(Cc2cccc(F)c2)CCc2cnc3c(-c4ccc(C(F)(F)F)cc4)cnn3c21 | –
7 | 82 | 6 | 0.93 | – | – | OCc1nn2c3c(cnc2c1-c1ccc(C(F)(F)F)nc1)CN[C@]3(Cc1cccc(F)c1)C1CC1 | solubility [4]: 36 µM (≈ 17.4 µg/mL)
8 | – | 2 | 0.83 | – | – | [2H]C([2H])(O)c1nn2c3c(cnc2c1-c1ccc(C(F)(F)F)cc1)CN[C@]3(Cc1cccc(F)c1)C(=O)OC | AUC/dose (Mus musculus [8]): 7.89 µM·h; solubility [4]: 26 µM (≈ 13.1 µg/mL)
9 | 99 | 5 | 0.82 | – | – | COC(=O)[C@@]1(Cc2cccc(F)c2)NCc2cnc3c(-c4ccc(C(F)(F)F)cc4)c(CO)nn3c21 | Efficacy ([1]; tested as the 2H-labelled form): 103%; Activity (Rattus norvegicus [10]): 37%; Activity (Rattus norvegicus [11]): 11%; AUC/dose (Mus musculus [8]): 7.65 µM·h; Activity (Rattus norvegicus [12]): 1%; solubility [4]: 58 µM (≈ 29 µg/mL); Activity (Mus musculus [13]): 29%
10 | 74 | 20 | 0.92 | – | – | COC(=O)[C@@]1(Cc2cccc(F)c2)NCc2cnc3c(-c4ccc(C(F)(F)F)cc4)c(C(N)=O)nn3c21 | solubility [4]: 39 µM (≈ 20 µg/mL)
11 | 77 | 436 | – | – | – | CC1(Cc2cccc(F)c2)NCc2cnc3c(-c4ccc(C(F)(F)F)cc4)cnn3c21 (racemic) | –
12 | 91 | 3 | 0.95 | 14 | 88 | COC(=O)[C@@]1(Cc2cccc(F)c2)NCc2cnc3c(-c4ccc(C(F)(F)F)cc4)cnn3c21 | AUC/dose (Mus musculus [8]): 0.31 µM·h
13 | 84 | 73 | 0.97 | 135 | 80 | COC(=O)[C@@]1(Cc2cccc(F)c2)N=Cc2cnc3c(-c4ccc(C(F)(F)F)cc4)cnn3c21 | –

Second part, the compound before the results:

Row | Structure (SMILES) | Efficacy [1] [%] | EC50 [2] [nM] | hepatic extraction ratio [3] | EC50 [5] [nM] | Efficacy [6] [%] | also measured
14 | CCOC(=O)[C@](C)(Cc1ccccc1)c1cc(C)nc2c(-c3ccc(Cl)cc3)cnn12 | 15 | > 10 | – | – | – | –
15 | CCOC(=O)[C@@]1(Cc2ccccc2)CCCc2cnc3c(-c4ccc(C(F)(F)F)cc4)cnn3c21 | 75 | 8 | 0.71 | 27 | 59 | –
16 | COC(=O)C1(Cc2ccccc2)COc2cnc3c(-c4ccc(C(F)(F)F)cc4)cnn3c21 (racemic) | 83 | 11 | 0.88 | 15 | 76 | –
17 | CCOC(=O)[C@@]1(Cc2ccccc2)CCc2cnc3c(-c4ccc(Cl)cc4)cnn3c21 | 73 | 3 | 0.79 | 11 | 78 | –
18 | CCOC(=O)[C@](C)(Cc1ccccc1)c1c(C)cnc2c(-c3ccc(C(F)(F)F)cc3)cnn12 | 80 | 1 | 0.3 | 11 | 62 | hepatic extraction ratio [7]: 0.3; AUC/dose (Mus musculus [8]): 0.6 µM·h; hepatic extraction ratio [9]: 0.3
19 | CCOC(=O)C1(Cc2ccccc2)c2c(cnc3c(-c4ccc(C(F)(F)F)cc4)cnn23)CN1C (racemic) | 55 | 214 | – | – | – | –
20 | CCOC(=O)[C@]1(Cc2ccccc2)CCc2cnc3c(-c4ccc(C(F)(F)F)cc4)cnn3c21 | 66 | 38 | – | – | – | –
21 | CCOC(=O)C1(Cc2ccccc2)CCc2cnc3c(-c4ccc(Oc5ccccc5)cc4)cnn3c21 (racemic) | 60 | 20 | – | – | – | –
22 | CCOC(=O)[C@](C)(Cc1ccccc1)c1ccnc2c(-c3ccc(C(F)(F)F)cc3)c(C)nn12 | 83 | 23 | – | 24 | 72 | –
23 | COC(=O)C1(Cc2ccccc2)CCc2cnc3c(-c4ccc(C(F)(F)F)cc4)cnn3c21 (racemic) | 82 | 2 | 0.93 | 17 | 91 | –
24 | COC(=O)C1(Cc2ccccc2)CCc2cnc3c(-c4ccc(S(C)(=O)=O)cc4)cnn3c21 (racemic) | 81 | 125 | 0.89 | – | – | –
25 | CCOC(=O)[C@](C)(Cc1ccccc1)c1c(Cl)cnc2c(-c3ccc(C(F)(F)F)cc3)cnn12 | 75 | 3 | – | 8 | 73 | –
26 | COC(=O)C1(Cc2ccccc2)CCCCc2cnc3c(-c4ccc(C(F)(F)F)cc4)cnn3c21 (racemic) | 66 | 74 | – | – | – | –
27 | CCOC(=O)[C@@]1(Cc2ccccc2)CNc2cnc3c(-c4ccc(C(F)(F)F)cc4)cnn3c21 | 75 | 25 | 0.75 | 25 | 80 | –
28 | Fc1cccc(CC2(C3CC3)NCc3cnc4c(-c5ccc(C(F)(F)F)cc5)cnn4c32)c1 (racemic) | 87 | 21 | 0.6 | – | – | –
29 | CCOC(=O)C1(Cc2ccccc2)CCCCCc2cnc3c(-c4ccc(C(F)(F)F)cc4)cnn3c21 (racemic) | 56 | 101 | – | – | – | –
30 | COC(=O)C1(Cc2ccccc2)OCc2cnc3c(-c4ccc(C(F)(F)F)cc4)cnn3c21 (racemic) | 77 | 34 | 0.96 | 35 | 78 | –
31 | CCOC(=O)C1(Cc2cccc(F)c2)NC(=O)c2cnc3c(-c4ccc(C(F)(F)F)cc4)cnn3c21 (racemic) | 81 | 298 | – | – | – | –
32 | CCOC(=O)[C@@]1(Cc2ccccc2)CCc2cnc3c(-c4ccc(C(F)(F)F)cc4)cnn3c21 | 85 | 0.5 | 0.96 | 8 | 80 | hepatic extraction ratio [7]: 0.6; AUC/dose (Mus musculus [8]): 0.3 µM·h; hepatic extraction ratio [9]: 0.6
33 | COC(=O)C1(Cc2ccccc2)CCc2cnc3c(-c4ccc(C#N)cc4)cnn3c21 (racemic) | 55 | 7 | – | – | – | –
